Laboratory results from patent US20190282673A1, “STAPHTAME ACTIVITY ON BIOFILMS” (priority 2016, published 2019).
Like-named read-outs stand apart in the source and are kept apart here.

Tests used:
[1] = test system: S. aureus; assay: MIC and checkerboard synergy (broth microdilution) on planktonic cells; format: cell-based, Staphylococcus aureus; details: for MIC: Staphylococcus aureus, read-out: MIC (drug alone)
Procedure: MIC was determined using a modified Clinical and Laboratory Standards Institute (CLSI) broth microdilution procedure described earlier in Vipra, et al. (2012) “Antistaphylococcal activity of bacteriophage derived chimeric protein P128” BMC Microbiol. 12:41-50; and Clinical and Laboratory Standards Institute (2012) “Methods for Dilution Antimicrobial Susceptibility Tests for Bacteria That Grow Aerobically; Approved Standard” CLSI document M07-A9.9 ed. Wayne, Pa. USA. In order to determine effects of combinations of P128 with antibiotics, combinations of various dilutions of P128 and a second drug were tested for growth inhibition using a microdilution checkerboard technique. See Lu, et al. (2013) “In vitro activity of sodium new houttuyfonate alone and in combination with oxacillin or netilmicin against methicillin-resistant Staphylococcus aureus” PLoS One 8:e68053. Briefly, S. aureus culture at a final cell number of 5×10^5 CFU/mL was added to wells of 96-well microtiter plates (precoated with 0.5% BSA), containing two-fold dilutions of P128 and the second drug in cation adjusted Mueller Hinton Broth (CAMHB). The plates were incubated at 37° C. for 24 h and the individual MICs and the combination MICs were read. The fractional inhibitory concentration index (FICI) was determined using the following equation: FICI=(MIC of drug A in the combination/MIC of drug A alone)+(MIC of drug B in the combination/MIC of drug B alone). The combination was considered to be synergistic when the FICI was ≤0.5; additive when FICI was 0.5-1.0; indifferent when FICI was 1-4 and antagonistic when FICI≥4. The experiments were performed in triplicate and repeated twice.
In order to find out whether P128 can act in a synergistic manner with commonly used antibiotics, MIC based growth inhibition assays were performed. MIC based synergy was studied by checkerboard method by determining the FIC index using the method of Lu, et at (2013) “In vitro activity of sodium new houttuyfonate alone and in combination with oxacillin or netilmicin against methicillin-resistant Staphylococcus aureus” PLoS One 8:e68053. […] Similarly.
(§1) Bacterial cultures at a final cell number of 5×10^5 CFU/mL was added to wells of 96-well microtiter plates (precoated with 0.5% BSA), containing two-fold dilutions of P128 and the second drug in cation adjusted Mueller Hinton Broth (CAMHB). The plates were incubated at 37° C. for 24 h and the individual MICs and the combination MICs were read. The fractional inhibitory concentration index (FICI) was determined using the following equation: FICI=(MIC of drug A in the combination/MIC of drug A alone)+(MIC of drug B in the combination/MIC of drug B alone). The combination was considered to be synergistic when the FICI was ≤0.5; additive when FICI was 0.5-1.0; indifferent when FICI was 1-4 and antagonistic when FICI≥4.

[2] = test system: S. aureus biofilms; assay: MBIC and checkerboard synergy on preformed biofilm (MTT assay); format: cell-based, Staphylococcus aureus
Procedure: […] LB supplemented with 50 μg/mL CaCl2 was used for daptomycin treatment wells. The contents of the well was aspirated out and discarded. The biofilm adhered to the wells was quantified by MTT assay as described above. The MBIC was defined as the minimum concentration of P128 or the drug showing no colour development. […] In each experiment, in addition to the combination MBIC, the MBIC of each drug was also determined individually. The fractional MBIC concentrations were determined by MTT dye method as described above. The FICI and synergy was also calculated in a similar manner.
The ability of P128 to inhibit growth of S. aureus in a preformed biofilm was measured by determining minimum biofilm inhibition concentration (MBIC), defined as minimum concentration showing growth inhibition in a MTT based assay. […] 11:226.
The assay was optimized using the standard S. aureus strain ATCC 29213. An overnight-grown culture of the strain was diluted 1:40 in LB broth 200 μL of diluted culture was aliquoted into microtiter plate wells. Microplates were placed in a shaker-incubator set to 37° C., and 100 rpm for 24 h followed by 48 h incubation under static conditions at 37° C. The contents of one set of four wells were aspirated and discarded. Wells were washed twice with 1×PBS and the presence of biofilm in the wells at the end of this 72-hour period was determined by metabolic dye-reduction assay method using MTT (3-(4, 5-dimethylthiazol-5-diphenyltetrazolium bromide; Himedia). In this assay, live cells reduce the dye leading to color formation which can be read at 570 nm, and the intensity of color can be correlated to number of live cells. 100 μL of PBS was added to the wells along with 10 μL of MTT solution. The plate was incubated for 2 h in the dark. After this, 110 μL of solvent solution solubilizing agent was added and the plate was incubated for 15 minutes at ambient temperature with gentle agitation. The absorbance was read at 570 nm in a microplate reader. Another set of four wells was processed for harvesting the biofilm and determination of CFUs present by plating on solid media. For biofilm inhibitory studies, the wells were washed twice with 1×PBS and challenged with various concentrations of P128 or other antibiotic drugs and incubated for 24 h at 37° C. The contents of the well was aspirated out and discarded. The biofilm adhered to the wells was quantified by MTT assay as described above. The MBIC was defined as the minimum concentration of P128 or the drug showing no colour development. […] In each experiment, in addition to the combination MBIC, the MBIC of each drug was also determined individually. The fractional MBIC concentrations were determined by MTT dye method as described above. The FICI and synergy was also calculated in a similar manner.
In order to determine whether P128 could synergize with known anti-Staphylococcus drugs to inhibit S. aureus in biofilms. […] The assays were performed in a 96 well checkerboard format using various concentrations of P128 and one of the antibiotics.

[3] = test system: S. epidermidis; assay: MIC and checkerboard synergy (broth microdilution) on planktonic cells; format: cell-based, Staphylococcus epidermidis; details: for MIC: Staphylococcus epidermidis
Procedure: as §1
S. epidermidis culture at a final cell number of 5×10^5 CFU/mL was added to wells of 96-well microtiter plates (precoated with 0.5% BSA), containing two-fold dilutions of P128 and either Daptomycin or Oxacillin in cation adjusted Mueller Hinton Broth (CAMHB). CAMHB was supplemented with 50 µg/mL Ca^++ for daptomycin assay. The plates were incubated at 37° C. for 24 h and the individual MICs and the combination MICs were read. The fractional inhibitory concentration index (FICI) was determined using the following equation: FICI=(MIC of drug A in the combination/MIC of drug A alone)+(MIC of drug B in the combination/MIC of drug B alone). The combination was considered to be synergistic when the FICI was ≤0.5; additive when FICI was between 0.5-1.0; indifferent when FICI was between 1-4 and antagonistic when FICI was ≥4. The experiments were performed in triplicate and repeated twice.

[4] = test system: S. aureus BK1 biofilms; assay: Scanning electron microscopy of treated biofilms in microtitre plates; format: cell-based, Staphylococcus aureus; details: Gentamycin 50 μg/mL; P128 12.5 μg/mL (lowest concentration tested)
Procedure: MRSA strain BK1 or MW2 was used for studying biofilm eradication activity of P128 by SEM. For this, biofilms formed in microtitre plates or on the surface of catheters were treated with increasing concentrations of P128 or antibiotics and subjected to SEM. S. aureus BK1 or MW2 was revived on blood agar plates and the culture was grown overnight in TSB supplemented with 20% glucose. The overnight-grown culture was diluted 1:50 in TSB with 2% glucose to achieve OD600=˜0.1. 200 μL of the diluted culture was aliquoted into each well of the 96 well plate and incubated at 37° C. under static conditions for 18 h. After incubation the contents were aspirated, washed twice with 200 μL of PBS, and 100 μL of media+100 μL of drug were added to each well and incubated again at 37° C. for 18 h. The contents were aspirated, washed with 200 μL of PBS and allowed to dry at 37° C. for 15 min. The individual wells were cut out and biofilms visualized by SEM.

[5] = Table 4, S. aureus ATCC 29213 preformed biofilm, 6 h
[6] = Table 4, S. aureus ATCC 29213 preformed biofilm, 24 h
[7] = Table 4, S. aureus B9241 preformed biofilm, 6 h
[8] = Table 4, S. aureus B9241 preformed biofilm, 24 h
[9] = Table 4, S. aureus BK1 preformed biofilm, 6 h
[10] = Table 4, S. aureus BK1 preformed biofilm, 24 h

CC[C@H]1OC(=O)[C@H](C)[C@@H](O[C@H]2C[C@@](C)(OC)[C@@H](O)[C@H](C)O2)[C@H](C)[C@@H](O[C@@H]2O[C@H](C)C[C@H](N(C)C)[C@H]2O)[C@](C)(O)C[C@@H](C)CN(C)[C@H](C)[C@@H](O)[C@]1(C)O [Azithromycin, azithromycin]
MIC ([1]; 24 h, S. aureus BK18): 2 µg/mL

Cc1nnc(SCC2=C(C(=O)O)N3C(=O)[C@@H](NC(=O)Cn4cnnn4)[C@H]3SC2)s1 [Cephazolin, cephazolin]
MIC (drug alone) ([1]; S. aureus COL (MRSA)): >10 µg/mL | MIC (drug alone) ([1]; S. aureus MW2 (MRSA)): 5 µg/mL | MIC (drug alone) ([1]; S. aureus USA 300 (MRSA)): >10 µg/mL

O=C(O)c1cn(C2CC2)c2cc(N3CCNCC3)c(F)cc2c1=O [Ciprofloxacin, ciprofloxacin, reference compound]
MBIC (individual) [2, 5]: >250 µg/mL | MBIC (individual) [2, 6]: 6.5 µg/mL | MBIC (individual) [2, 7]: >250 µg/mL | MBIC (individual) [2, 8]: 250 µg/mL | MBIC (individual) [2, 9]: >250 µg/mL | MBIC (individual) [2, 10]: >250 µg/mL

Cc1onc(-c2ccccc2)c1C(=O)N[C@@H]1C(=O)N2[C@@H]1SC(C)(C)[C@@H]2C(=O)O [Oxacillin, oxacillin]
MIC (drug alone) ([3]; S. epidermidis B9470): 16 µg/mL | MIC (drug alone) ([3]; S. epidermidis B9471): 16 µg/mL | MIC ([3]; S. epidermidis B9467, read-out: MIC (drug alone)): 8 µg/mL | MIC ([3]; S. epidermidis B9468, read-out: MIC (drug alone)): 0.12 µg/mL | MIC ([3]; S. epidermidis B9470, read-out: MIC (drug alone)): > 8 µg/mL | MIC ([3]; S. epidermidis B9471, read-out: MIC (drug alone)): > 8 µg/mL | MIC ([3]; S. epidermidis B9472, read-out: MIC (drug alone)): 16 µg/mL | MIC ([3]; S. epidermidis B9473, read-out: MIC (drug alone)): 16 µg/mL | MIC ([3]; S. epidermidis, read-out: MIC on resistant strains): 0.12 µg/mL | MIC ([3]; S. epidermidis, read-out: MIC on the sensitive strains): 16 µg/mL | MIC ([1]; MRSA / USA300, 24 h, S. aureus USA 300 (MRSA)): > 16 µg/mL | MIC ([1]; MRSA, 24 h, MRSA strain BK22): > 16 µg/mL | MIC ([1]; MRSA, 24 h, S. aureus COL (MRSA)): > 16 µg/mL | MIC ([1]; MRSA, 24 h, S. aureus MW2 (MRSA)): > 16 µg/mL

CN(C)c1cc(NC(=O)CNC(C)(C)C)c(O)c2c1C[C@H]1C[C@H]3[C@H](N(C)C)C(O)=C(C(N)=O)C(=O)[C@@]3(O)C(O)=C1C2=O [Tigecycline]
MIC ([1]; 24 h, S. aureus BK18): 4 µg/mL

gentamycin [reference compound]
MBIC (individual) [2, 5]: >1000 µg/mL | MBIC (individual) [2, 6]: >1000 µg/mL | MBIC (individual) [2, 7]: >1000 µg/mL | MBIC (individual) [2, 8]: >1000 µg/mL | MBIC (individual) [2, 9]: >1000 µg/mL | MBIC (individual) [2, 10]: >1000 µg/mL | Reduction in MBIC in combination with P128 ([2]; gentamycin sensitive strains ATCC29213 and BK1): > 250 fold | MIC (drug alone) ([1]; S. aureus ATCC 29213 (MSSA)): 0.4 µg/mL | MIC (drug alone) ([1]; S. aureus B9241 (gentamycin and ciprofloxacin resistant)): 62 µg/mL | MIC (drug alone) ([1]; S. aureus BK1 (MRSA, ciprofloxacin resistant)): 0.4 µg/mL | MIC on resistant strains ([1]; planktonic S. aureus, strains resistant to the drug): 62 µg/mL | MIC on sensitive strains ([1]; planktonic S. aureus, strains sensitive to the drug): 0.4 µg/mL | Effect on biofilm by SEM [4]: did not have any appreciable effect
